Biological target: PD-1/PD-L1 (Homo sapiens (Human), UniProt Q9NZQ7)
Experiment: PD-1/PD-L1 biochemical protein-protein interaction assay (ALPHA)
Conditions: 0.3 nM His tagged PD-L1, 2.5 nM biotinylated Fc-PD-1, 60 minutes at 25° C., read-out: IC50 PD-L1-PD1

PD-1/PD-L1, sequence (Q9NZQ7 19-238): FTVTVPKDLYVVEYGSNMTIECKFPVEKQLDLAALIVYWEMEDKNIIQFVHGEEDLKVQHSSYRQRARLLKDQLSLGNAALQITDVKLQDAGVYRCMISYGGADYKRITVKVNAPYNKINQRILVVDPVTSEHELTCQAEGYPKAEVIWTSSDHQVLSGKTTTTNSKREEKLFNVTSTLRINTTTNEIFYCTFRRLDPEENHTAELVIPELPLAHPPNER

Going from COc1nc(-c2cccc(-c3cccc(-c4cnc(CN5CC[C@H](O)C5)c(OC)n4)c3Cl)c2Cl)cnc1CNC[C@@H]1CCC(=O)N1 [compound 431] to CNC(=O)C1CCN(Cc2ncc(-c3cccc(-c4cccc(-c5cnc(CNC[C@@H]6CCC(=O)N6)c(OC)n5)c4Cl)c3Cl)nc2OC)C1 (stereo partly shown) [compound 472], the IC50 falls from 0.124 nM to 0.066 nM (1.9-fold). The second is the more potent here.

COc1nc(-c2cccc(-c3cccc(-c4cnc(CN[C@H]5C[C@](O)(CF)C5)c(OC)n4)c3Cl)c2Cl)cnc1CNC[C@@H]1CCC(=O)N1 [compound 432] and COc1nc(-c2cccc(-c3cccc(-c4cnc(CN[C@H]5C[C@@H](C(N)=O)C5)c(OC)n4)c3Cl)c2Cl)cnc1CNC[C@@H]1CCC(=O)N1 [compound 464] are within 1.5-fold of each other in IC50: 0.084 nM for the first, 0.11 nM for the second.

Going from COc1nc(-c2cccc(-c3cccc(-c4cnc(CNC[C@@H]5CCC(=O)N5)c(OC)n4)c3Cl)c2Cl)cnc1CNCC1OCCO1 [compound 433] to COc1nc(-c2cccc(-c3cccc(-c4cnc(CNC[C@@H]5CCC(=O)N5)c(OC)n4)c3Cl)c2Cl)cnc1CNC[C@@H]1CNC(=O)C1 [compound 435], the IC50 falls from 0.259 nM to 0.064 nM (4-fold).

First: COc1nc(-c2cccc(-c3cccc(-c4cnc(CNCC[C@@H]5CCC(=O)N5)c(OC)n4)c3Cl)c2Cl)cnc1CNCC[C@@H]1CCC(=O)N1 [compound 434]
Second: COc1nc(-c2cccc(-c3cccc(-c4cnc(CNC[C@@H]5CCC(=O)N5)c(OC)n4)c3Cl)c2Cl)cnc1CNC[C@H]1CNC(=O)C1 [compound 481]
The IC50 of the first is 3.5-fold lower: 0.064 nM for the first, 0.227 nM for the second. The first is the more potent here.

First: COc1nc(-c2cccc(-c3cccc(-c4cnc(CN)c(OC)n4)c3Cl)c2Cl)ccc1CN [compound 436]
Second: COc1nc(-c2cccc(-c3cccc(-c4cnc(CN5CC(O)C5)c(OC)n4)c3Cl)c2Cl)ccc1CN1CC(O)C1 [compound 439]
The IC50 of the first is 8.5-fold higher: 5.46 nM for the first, 0.646 nM for the second. The second is the more potent here.

COc1nc(-c2cccc(-c3cccc(-c4cnc(CN5CC6(CNC(=O)C6)C5)c(OC)n4)c3Cl)c2Cl)ccc1CN1CC2(CNC(=O)C2)C1 [compound 437] and COc1nc(-c2cccc(-c3cccc(-c4cnc(CN5CC6(CNC(=O)C6)C5)c(OC)n4)c3Cl)c2Cl)cnc1CN1CC(C)(O)C1 [compound 444] are within 1.5-fold of each other in IC50: 0.086 nM for the first, 0.074 nM for the second.

Going from COc1nc(-c2cccc(-c3cccc(-c4cnc(CN5CC(OC)C5)c(OC)n4)c3Cl)c2Cl)ccc1CN1CC(OC)C1 [compound 438, 5-(2,2′-dichloro-3′-(6-methoxy-5-((3-methoxyazetidin-1-yl)methyl)pyridin-2-yl)-[1,1′-biphenyl]-3-yl)-3-methoxy-2-((3-methoxyazetidin-1-yl)methyl)pyrazine] to COc1nc(-c2cccc(-c3cccc(-c4cnc(CN5CC(C(C)(C)O)C5)c(OC)n4)c3Cl)c2Cl)cnc1CN1CC(C(C)(C)O)C1 [compound 478], the IC50 falls from 1.34 nM to 0.064 nM (21-fold). The second is the more potent here.

First: COc1nc(-c2cccc(-c3cccc(-c4cnc(CNC[C@@H]5CCC(=O)N5)cn4)c3Cl)c2Cl)ccc1CNC[C@@H]1CCC(=O)N1 [compound 440]
Second: COc1nc(-c2cccc(-c3cccc(-c4cnc(CNC[C@@H]5CCC(=O)N5)c(OC)n4)c3Cl)c2Cl)cnc1CNCC1CCN(C(N)=O)C1 (stereo partly shown) [compound 471]
The IC50 of the first is 16-fold higher: 1.87 nM for the first, 0.119 nM for the second. The second is the more potent here.

First: COc1nc(-c2cccc(-c3cccc(-c4cnc(CN5CCC(c6cn[nH]c6)C5)c(OC)n4)c3Cl)c2Cl)cnc1CNC[C@@H]1CCC(=O)N1 (stereo partly shown) [compound 441]
Second: COc1nc(-c2cccc(-c3cccc(-c4cnc(CN5CCC(c6nnc[nH]6)C5)c(OC)n4)c3Cl)c2Cl)cnc1CNC[C@@H]1CCC(=O)N1 (stereo partly shown) [compound 462]
The IC50 of the first is 5.4-fold lower: 0.064 nM for the first, 0.346 nM for the second. The first is the more potent here.

Compared with COc1nc(-c2cccc(-c3cccc(-c4cnc(CN5CCC(C)(CO)C5)c(OC)n4)c3Cl)c2Cl)cnc1CNC[C@@H]1CCC(=O)N1 (stereo partly shown) [compound 442], COCC1(CO)CCN(Cc2ncc(-c3cccc(-c4cccc(-c5cnc(CNC[C@@H]6CCC(=O)N6)c(OC)n5)c4Cl)c3Cl)nc2OC)C1 (stereo partly shown) [compound 463] is 1.9-fold lower in IC50: 0.146 nM for the first, 0.076 nM for the second. The second is the more potent here.

First: COc1nc(-c2cccc(-c3cccc(-c4cnc(CN5CCC(C)(OC)C5)c(OC)n4)c3Cl)c2Cl)cnc1CNC[C@@H]1CCC(=O)N1 (stereo partly shown) [compound 443]
Second: COc1nc(-c2cccc(-c3cccc(-c4cnc(CN5CC(C)(O)C5)c(OC)n4)c3Cl)c2Cl)cnc1CNC[C@H]1CCC(=O)N1 [compound 446]
The IC50 of the first is 1.8-fold higher: 0.246 nM for the first, 0.138 nM for the second. The second is the more potent here.

COc1nc(-c2cccc(-c3cccc(-c4cnc(CN5CC6(CCC(=O)N6)C5)c(OC)n4)c3Cl)c2Cl)cnc1CN1CC(C)(O)C1 [compound 445] and COc1nc(-c2cccc(-c3cccc(-c4cnc(CN5CC6(C5)CN(C(C)=O)C6)c(OC)n4)c3Cl)c2Cl)cnc1CN1CC(C)(O)C1 [compound 447] are within 1.5-fold of each other in IC50: 0.069 nM for the first, 0.064 nM for the second.

First: COc1nc(-c2cccc(-c3cccc(-c4cnc(CN5CC(C)(O)C5)c(OC)n4)c3Cl)c2Cl)cnc1CN1CC[C@@H](CO)C1 [compound 448]
Second: COc1nc(-c2cccc(-c3cccc(-c4cnc(CN5CC(C)(O)C5)c(OC)n4)c3Cl)c2Cl)cnc1CNCCO [compound 449]
The IC50 of the first is 4.5-fold lower: 0.064 nM for the first, 0.285 nM for the second. The first is the more potent here.

Going from COc1nc(-c2cccc(-c3cccc(-c4cnc5c(CN6CC7(CCC(=O)N7)C6)cn(C)c5c4)c3Cl)c2Cl)cnc1CN1CC2(CCC(=O)N2)C1 [compound 450] to COc1nc(-c2cccc(-c3cccc(-c4cnc5c(CN6CC7(C6)CN(C(C)=O)C7)cn(C)c5c4)c3Cl)c2Cl)cnc1CN1CC2(C1)CN(C(C)=O)C2 [compound 451], the IC50 rises from 0.064 nM to 0.101 nM (1.6-fold). The first is the more potent here.

Going from CCC(=O)NC1CCN(Cc2ncc(-c3cccc(-c4cccc(-c5cnc(CNC[C@@H]6CCC(=O)N6)c(OC)n5)c4Cl)c3Cl)nc2OC)C1 (stereo partly shown) [compound 452] to COc1nc(-c2cccc(-c3cccc(-c4cnc(CN5CCC([C@H](C)O)CC5)c(OC)n4)c3Cl)c2Cl)cnc1CNC[C@@H]1CCC(=O)N1 [compound 457], the IC50 rises from 0.086 nM to 0.172 nM (2-fold).

COc1nc(-c2cccc(-c3cccc(-c4cnc(CN5CCCC5(C)CO)c(OC)n4)c3Cl)c2Cl)cnc1CNC[C@@H]1CCC(=O)N1 (stereo partly shown) [compound 453] and COc1nc(-c2cccc(-c3cccc(-c4cnc(CN5CC[C@]6(O)C[C@@H]6C5)c(OC)n4)c3Cl)c2Cl)cnc1CNC[C@@H]1CCC(=O)N1 [compound 482] are within 1.5-fold of each other in IC50: 0.139 nM for the first, 0.108 nM for the second.

Compared with COc1nc(-c2cccc(-c3cccc(-c4cnc(CNCCOC(N)=O)c(OC)n4)c3Cl)c2Cl)cnc1CNCCOC(N)=O [compound 454], COc1nc(-c2cccc(-c3cccc(-c4cnc(CNCC5CCN(C(N)=O)C5)c(OC)n4)c3Cl)c2Cl)cnc1CNCC1CCN(C(N)=O)C1 (stereo not shown) [compound 467] is 2.3-fold higher in IC50: 0.064 nM for the first, 0.146 nM for the second. The first is the more potent here.

COc1nc(-c2cccc(-c3cccc(-c4cnc(CNCc5cnn(CCO)c5)c(OC)n4)c3Cl)c2Cl)cnc1CNCc1cnn(CCO)c1 [compound 455] and COc1nc(-c2cccc(-c3cccc(-c4cnc(CNCc5cn[nH]c5)c(OC)n4)c3Cl)c2Cl)cnc1CNCc1cn[nH]c1 [compound 456] are within 1.5-fold of each other in IC50: 0.145 nM for the first, 0.186 nM for the second.

COc1nc(-c2cccc(-c3cccc(-c4cnc(CN[C@H]5CC[C@@H](C#N)C5)c(OC)n4)c3Cl)c2Cl)cnc1CNC[C@@H]1CCC(=O)N1 [compound 458] and COc1nc(-c2cccc(-c3cccc(-c4cnc(CN[C@@H]5CCC(C(N)=O)C5)c(OC)n4)c3Cl)c2Cl)cnc1CNC[C@@H]1CCC(=O)N1 (stereo partly shown) [compound 473] are within 1.5-fold of each other in IC50: 0.087 nM for the first, 0.093 nM for the second.

Going from COc1nc(-c2cccc(-c3cccc(-c4cnc(CN(C)C[C@H]5C[C@H](O)C5)c(OC)n4)c3Cl)c2Cl)cnc1CNC[C@@H]1CCC(=O)N1 [compound 459] to COc1nc(-c2cccc(-c3cccc(-c4cnc(CN[C@H]5C[C@H](C(N)=O)C5)c(OC)n4)c3Cl)c2Cl)cnc1CNC[C@@H]1CCC(=O)N1 [compound 465], the IC50 falls from 0.344 nM to 0.158 nM (2.2-fold). The second is the more potent here.

First: COCC1(CO)CCN(Cc2ncc(-c3cccc(-c4cccc(-c5cnc(CN6CCC(CO)(COC)C6)c(OC)n5)c4Cl)c3Cl)nc2OC)C1 (stereo not shown) [compound 460]
Second: COc1nc(-c2cccc(-c3cccc(-c4cnc(CN5CC6CC5(CO)C6)c(OC)n4)c3Cl)c2Cl)cnc1CN1CC2CC1(CO)C2 [compound 477]
The IC50 of the first is 1.6-fold lower: 0.157 nM for the first, 0.246 nM for the second.

Going from COc1nc(-c2cccc(-c3cccc(-c4cnc(CNC[C@@H]5CCC(=O)N5)c(OC)n4)c3Cl)c2Cl)cnc1CNCCc1nnc[nH]1 [compound 461] to COc1nc(-c2cccc(-c3cccc(-c4cnc(CNCC5(O)CCC5)c(OC)n4)c3Cl)c2Cl)cnc1CNC[C@@H]1CCC(=O)N1 [compound 486], the IC50 rises from 0.159 nM to 0.29 nM (1.8-fold).

COc1nc(-c2cccc(-c3cccc(-c4cnc(CNC5CCN(C(N)=O)CC5)c(OC)n4)c3Cl)c2Cl)cnc1CNC1CCN(C(N)=O)CC1 [compound 466] and COc1nc(-c2cccc(-c3cccc(-c4cnc(CNC5CCN(C(N)=O)CC5)c(OC)n4)c3Cl)c2Cl)cnc1CNC[C@@H]1CCC(=O)N1 [compound 470] are within 1.5-fold of each other in IC50: 0.073 nM for the first, 0.094 nM for the second.

CNC(=O)C1CCN(Cc2ncc(-c3cccc(-c4cccc(-c5cnc(CC6CCN(C(=O)NC)C6)c(OC)n5)c4Cl)c3Cl)nc2OC)C1 (stereo not shown) [compound 468] and COc1nc(-c2cccc(-c3cccc(-c4cnc(CN5CC(C(C)(C)O)C5)c(OC)n4)c3Cl)c2Cl)cnc1CNC[C@@H]1CCC(=O)N1 [compound 484] are within 1.5-fold of each other in IC50: 0.123 nM for the first, 0.122 nM for the second.

COc1nc(-c2cccc(-c3cccc(-c4cnc(CN[C@@H]5CCC5C)c(OC)n4)c3Cl)c2Cl)cnc1CNC[C@@H]1CCC(=O)N1 (stereo partly shown) [compound 469] and COc1nc(-c2cccc(-c3cccc(-c4cnc(CN5C6COCC5C6)c(OC)n4)c3Cl)c2Cl)cnc1CNC[C@@H]1CCC(=O)N1 [compound 485] are within 1.5-fold of each other in IC50: 0.26 nM for the first, 0.229 nM for the second.

Compared with COc1nc(-c2cccc(-c3cccc(-c4cnc(CN5C6COCC5C6)c(OC)n4)c3Cl)c2Cl)cnc1CN1C2COCC1C2 [compound 474], COc1nc(-c2cccc(-c3cccc(-c4cnc(CNC[C@H]5CCC[C@@H]5O)c(OC)n4)c3Cl)c2Cl)cnc1CNC[C@H]1CCC[C@@H]1O [compound 476] is 2.8-fold higher in IC50: 0.219 nM for the first, 0.622 nM for the second.

Going from COc1nc(-c2cccc(-c3cccc(-c4cnc(CNC[C@H]5CNC(=O)C5)c(OC)n4)c3Cl)c2Cl)cnc1CNC[C@H]1CNC(=O)C1 [compound 475] to COc1nc(-c2cccc(-c3cccc(-c4cnc(CNC[C@@H]5CNC(=O)C5)c(OC)n4)c3Cl)c2Cl)cnc1CNC[C@@H]1CNC(=O)C1 [compound 480], the IC50 falls from 0.162 nM to 0.064 nM (2.5-fold). The second is the more potent here.

For COc1nc(-c2cccc(-c3cccc(-c4cnc(CN5CCCC5C(C)(C)O)c(OC)n4)c3Cl)c2Cl)cnc1CNC[C@@H]1CCC(=O)N1 (stereo partly shown) [compound 483], the IC50 was 0.341 nM.
